Measurements taken from the Kinase Knowledgebase extract (Sharma et al. 2016).

Assays:
MAPK14 (human) [1] = target: MAPK14 (human) (UniProt Q16539); assay: Inhibition of TNF Production (PBMC)
MAPK14 (human) [2] = target: MAPK14 (human) (UniProt Q16539); assay: Inhibition of TNF Production (U937 Cells)
MAPK14 = MAPK14 (UniProt Q16539); assay: p38 alpha Inhibition
Chain of MAPK14 (Q16539 whole entry, looked up): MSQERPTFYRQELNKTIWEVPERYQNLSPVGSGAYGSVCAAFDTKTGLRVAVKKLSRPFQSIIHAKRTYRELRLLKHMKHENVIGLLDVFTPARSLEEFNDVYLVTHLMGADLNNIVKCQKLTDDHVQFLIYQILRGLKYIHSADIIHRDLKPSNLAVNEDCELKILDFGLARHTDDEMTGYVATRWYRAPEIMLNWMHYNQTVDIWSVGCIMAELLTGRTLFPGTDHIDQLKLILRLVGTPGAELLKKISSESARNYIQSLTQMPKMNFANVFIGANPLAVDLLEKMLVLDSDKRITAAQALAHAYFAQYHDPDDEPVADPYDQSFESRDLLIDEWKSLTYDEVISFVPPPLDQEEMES

Chain of MAPK14 (human) (Q16539 whole entry, looked up): as above

Q: Which IC50 (MAPK14 (human) [1]) does the source give for `CCNc1cc(-c2ccncc2)n(-c2ccc(F)cc2)n1` here?
A: The IC50 was over 10000 nM.

Q: And the IC50 (MAPK14 (human) [2])?
A: Its IC50 is 10000 nM.

Q: For `CCCc1cnn(-c2cccc(F)c2)c1-c1ccncc1`, which IC50 (MAPK14 (human) [1]) is on record?
A: The IC50 was 1300 nM.

Q: And the IC50 (MAPK14 (human) [2])?
A: The IC50 was 830 nM.

Q: And the IC50 (MAPK14)?
A: The IC50 was 1480 nM.

Q: `Cc1cc(-c2ccnc(NCCc3ccccc3)c2)n(-c2ccc(Cl)cc2)n1` was tested. Which ID50 (MAPK14 (human) [1]) did it give?
A: Its ID50 is 100 nM.

Q: What about the IC50 (MAPK14 (human) [2]) of the same molecule?
A: The IC50 was 860 nM.

Q: What does the source list for `O=C(c1cnn(-c2ccc(F)cc2)c1-c1ccncc1)N1CCNCC1`?
A: IC50 (MAPK14 (human) [1]): > 10000 nM; IC50 (MAPK14 (human) [2]): 10000 nM

Q: How did the IC50 (MAPK14 (human) [1]) turn out when `CCc1cnn(-c2cccc(F)c2)c1-c1ccncc1` was run?
A: Its IC50 is 700 nM.

Q: What about the IC50 (MAPK14 (human) [2]) of the same molecule?
A: The IC50 was 1150 nM.

Q: What about the IC50 (MAPK14) of the same molecule?
A: Its IC50 is 16500 nM.

Q: For `Cc1cccc(-n2nc(C)cc2-c2ccnc(N(C)CCc3ccccc3)c2)c1`, which IC50 (MAPK14 (human) [1]) is on record?
A: Its IC50 is 800 nM.

Q: `Cc1cccc(-n2nc(C)cc2-c2ccnc(OCc3ccccc3)c2)c1` was tested. Which IC50 (MAPK14 (human) [1]) did it give?
A: Its IC50 is over 10000 nM.

Q: And the IC50 (MAPK14 (human) [2])?
A: The IC50 was 2640 nM.

Q: Which IC50 (MAPK14 (human) [1]) does the source give for `NC(=O)c1cnn(-c2ccc(F)cc2)c1-c1ccncc1` here?
A: The IC50 was over 10000 nM.

Q: And the IC50 (MAPK14 (human) [2])?
A: Its IC50 is over 10000 nM.

Q: Which IC50 (MAPK14 (human) [1]) does the source give for `Fc1ccc(-n2nccc2-c2ccnc(NCc3ccccc3)c2)cc1` here?
A: Its IC50 is 1300 nM.

Q: What about the IC50 (MAPK14 (human) [2]) of the same molecule?
A: The IC50 was 240 nM.

Q: How did the IC50 (MAPK14 (human) [1]) turn out when `Cc1cc(-c2ccnc(NCc3cccnc3)c2)n(-c2cccc(F)c2)n1` was run?
A: Its IC50 is 600 nM.

Q: Which IC50 (MAPK14 (human) [1]) does the source give for `Fc1ccc(-n2nccc2-c2ccnc(NCCc3ccccc3)c2)cc1` here?
A: Its IC50 is 10000 nM.

Q: For `Cc1cc(-c2ccnc(Cl)c2)n(-c2cccc(F)c2)n1`, which IC50 (MAPK14 (human) [2]) is on record?
A: The IC50 was over 10000 nM.

Q: `Cc1cccc(-n2ncc(C)c2-c2ccncc2)c1` was tested. Which IC50 (MAPK14 (human) [1]) did it give?
A: Its IC50 is 600 nM.

Q: And the IC50 (MAPK14 (human) [2])?
A: The IC50 was 660 nM.

Q: Which IC50 (MAPK14 (human) [1]) does the source give for `Cc1cc(-c2ccnc(NCc3ccccc3)c2)n(-c2ccc(Cl)cc2)n1` here?
A: Its IC50 is 300 nM.

Q: What about the IC50 (MAPK14 (human) [2]) of the same molecule?
A: Its IC50 is 200 nM.

Q: How did the IC50 (MAPK14 (human) [1]) turn out when `CNc1cc(-c2cc(C)nn2-c2ccc(C)cc2)ccn1` was run?
A: Its IC50 is 100 nM.

Q: What about the IC50 (MAPK14 (human) [2]) of the same molecule?
A: The IC50 was 17900 nM.

Q: Which IC50 (MAPK14 (human) [1]) does the source give for `Cc1cccc(-n2nc(C)cc2-c2cc[nH]c(=O)c2)c1` here?
A: The IC50 was 2400 nM.

Q: And the IC50 (MAPK14 (human) [2])?
A: Its IC50 is 10000 nM.

Q: What does the source list for `Cc1cccc(-n2nc(C)cc2-c2ccnc(NCCc3ccccc3)c2)c1`?
A: IC50 (MAPK14 (human) [1]): 20 nM; IC50 (MAPK14 (human) [2]): 50 nM

Q: Which IC50 (MAPK14 (human) [1]) does the source give for `Cc1ccc(-n2nc(C)cc2-c2ccnc(NCCO)c2)cc1` here?
A: Its IC50 is 200 nM.

Q: `O=C(O)c1cnn(-c2ccc(F)cc2)c1-c1ccncc1` was tested. Which IC50 (MAPK14 (human) [2]) did it give?
A: Its IC50 is 10000 nM.

Q: How did the IC50 (MAPK14 (human) [1]) turn out when `Cc1cccc(-n2nc(C)cc2-c2ccnc(NCCO)c2)c1` was run?
A: Its IC50 is 100 nM.

Q: What about the IC50 (MAPK14 (human) [2]) of the same molecule?
A: The IC50 was 210 nM.

Q: `Cc1cccc(-n2nc(C)cc2-c2ccnc(NCc3ccccc3)c2)c1` was tested. Which IC50 (MAPK14 (human) [1]) did it give?
A: The IC50 was 100 nM.

Q: With `Cc1cc(-c2ccnc(C#N)c2)n(-c2ccc(F)cc2)n1` as the molecule, how does the IC50 (MAPK14 (human) [1]) read?
A: Its IC50 is over 10000 nM.

Q: What about the IC50 (MAPK14 (human) [2]) of the same molecule?
A: The IC50 was over 10000 nM.

Q: With `Cc1cc(-c2ccnc(N=[N+]=[N-])c2)n(-c2cccc(F)c2)n1` as the molecule, how does the IC50 (MAPK14 (human) [1]) read?
A: Its IC50 is 2200 nM.

Q: For `Fc1ccc(-n2nccc2-c2ccnc(Cl)c2)cc1`, which IC50 (MAPK14 (human) [1]) is on record?
A: The IC50 was 8100 nM.

Q: What about the IC50 (MAPK14 (human) [2]) of the same molecule?
A: The IC50 was 10000 nM.

Q: `Cc1cc(-c2ccnc(NCCO)c2)n(-c2ccc(Cl)cc2)n1` was tested. Which IC50 (MAPK14 (human) [1]) did it give?
A: Its IC50 is 100 nM.

Q: And the IC50 (MAPK14 (human) [2])?
A: The IC50 was 480 nM.

Q: With `Cc1cccc(-n2nc(C)cc2-c2ccnc(N(C)C)c2)c1` as the molecule, how does the IC50 (MAPK14 (human) [1]) read?
A: The IC50 was 3400 nM.

Q: What about the IC50 (MAPK14 (human) [2]) of the same molecule?
A: Its IC50 is 10000 nM.

Q: What does the source list for `COc1cc(-c2cc(C)nn2-c2cccc(C)c2)ccn1`?
A: IC50 (MAPK14 (human) [1]): 1900 nM; IC50 (MAPK14 (human) [2]): 1310 nM

Q: Which IC50 (MAPK14 (human) [1]) does the source give for `Cc1ccc(-n2nc(C)cc2-c2ccnc(NCc3ccccc3)c2)cc1` here?
A: Its IC50 is 1100 nM.

Q: For `Cc1ccc(-n2nc(C)cc2-c2ccnc(NCc3cccnc3)c2)cc1`, which IC50 (MAPK14 (human) [1]) is on record?
A: The IC50 was 1500 nM.

Q: Which IC50 (MAPK14 (human) [1]) does the source give for `Cc1cccc(-n2nc(C)cc2-c2ccnc(C(N)=O)c2)c1` here?
A: The IC50 was 5000 nM.

Q: With `Cc1ccc(-n2nc(C)cc2-c2cccc(N)c2)cc1` as the molecule, how does the IC50 (MAPK14 (human) [1]) read?
A: The IC50 was over 10000 nM.

Q: For `Cc1ccc(-n2nc(C)cc2-c2ccnc(N(C)C)c2)cc1`, which IC50 (MAPK14 (human) [1]) is on record?
A: Its IC50 is over 10000 nM.

Q: Which results are given for `Cc1cnn(-c2ccc(F)cc2)c1-c1ccncc1`?
A: IC50 (MAPK14 (human) [1]): 100 nM; IC50 (MAPK14 (human) [2]): 10000 nM

Q: Which IC50 (MAPK14 (human) [1]) does the source give for `Cc1ccc(-n2nc(C)cc2-c2ccnc(Cl)c2)cc1` here?
A: Its IC50 is 2900 nM.

Q: Which IC50 (MAPK14 (human) [1]) does the source give for `Cc1cccc(-n2nc(C)cc2-c2ccnc(S(C)(=O)=O)c2)c1` here?
A: The IC50 was over 10000 nM.

Q: `COC(=O)c1cnn(-c2ccc(F)cc2)c1-c1ccncc1` was tested. Which IC50 (MAPK14 (human) [2]) did it give?
A: The IC50 was 10000 nM.

Q: Which results are given for `Cc1cccc(-n2nc(C)cc2-c2ccnc(C#N)c2)c1`?
A: IC50 (MAPK14 (human) [1]): 1700 nM; IC50 (MAPK14 (human) [2]): 1650 nM

Q: For `Fc1ccc(-n2ncc(N3CCNCC3)c2-c2ccncc2)cc1`, which IC50 (MAPK14 (human) [1]) is on record?
A: Its IC50 is over 10000 nM.

Q: And the IC50 (MAPK14 (human) [2])?
A: Its IC50 is 10000 nM.

Q: Which results are given for `Cc1cccc(-n2nc(C)cc2-c2ccnc(N(C)Cc3ccccc3)c2)c1`?
A: IC50 (MAPK14 (human) [1]): > 10000 nM; IC50 (MAPK14 (human) [2]): 10000 nM

Q: `Cc1cccc(-n2nc(C)cc2-c2ccnc(N)c2)c1` was tested. Which IC50 (MAPK14 (human) [1]) did it give?
A: Its IC50 is 500 nM.

Q: For `Cc1cnn(-c2cccc(F)c2)c1-c1ccncc1`, which IC50 (MAPK14 (human) [1]) is on record?
A: Its IC50 is 4000 nM.

Q: For `CCNc1cc(-c2cc(C)nn2-c2ccc(C)cc2)ccn1`, which IC50 (MAPK14 (human) [1]) is on record?
A: Its IC50 is 200 nM.

Q: And the IC50 (MAPK14 (human) [2])?
A: The IC50 was 720 nM.

Q: `Cc1cnn(Cc2ccccc2)c1-c1ccncc1` was tested. Which IC50 (MAPK14 (human) [1]) did it give?
A: Its IC50 is over 10000 nM.
